Experimental data from ChEMBL document CHEMBL1201862, “PubChem BioAssay data set” (2004).
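Dose response: 5 concentrations. Exposure: 48 h. Format: 96-well plates. Endpoint: linear interpolation; highest concentration if not reached. The concentration for 50% growth inhibition is given as GI50.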 Activity calls are given as the source filed them. Cut-off read from the data, not from the text of the source: active = GI50 up to about 1.1 µM and inactive = higher.

How the values were obtained:
Experiment in all cases: inhibition of tumour cell growth, NCI panel, 48 h
A498 = test system: A498
A549 = test system: A549
HCC 2998 = test system: HCC 2998
K562 = test system: K562
KM12 = test system: KM12
NCI-H226 = test system: NCI-H226
NCI-H522 = test system: NCI-H522
OVCAR-3 = test system: OVCAR-3
OVCAR-8 = test system: OVCAR-8
RXF 393 = test system: RXF 393
SK-MEL-28 = test system: SK-MEL-28
SK-MEL-5 = test system: SK-MEL-5
SK-OV-3 = test system: SK-OV-3
SN12C = test system: SN12C
U-251 = test system: U-251
UACC-257 = test system: UACC-257
UO-31 = test system: UO-31
HL-60 = test system: HL-60

Measured: GI50

O=C(Nc1cccc([N+](=O)[O-])c1)/C(=N\NC(=O)c1ccncc1)c1nc2ccc([N+](=O)[O-])cc2nc1O
inactive: A498 > 100 µM | A549 39.5 µM | HCC 2998 35.4 µM | K562 21.5 µM | KM12 42.2 µM | NCI-H226 42.4 µM | NCI-H522 8.59 µM | OVCAR-3 > 100 µM | OVCAR-8 50.1 µM | RXF 393 60 µM | SK-MEL-28 29.2 µM | SK-MEL-5 38 µM | SK-OV-3 > 100 µM | SN12C > 100 µM | U-251 71.3 µM | UACC-257 46.7 µM | UO-31 21.9 µM

CCN(CC)CCNc1ccc2nnn3c4ccc(C)cc4c(=O)c1c23
inactive: A498 15.5 µM | A549 5.37 µM | HL-60 3.9 µM | K562 8.24 µM | KM12 4.56 µM | NCI-H226 10.8 µM | NCI-H522 7.67 µM | OVCAR-3 13.2 µM | OVCAR-8 5.22 µM | SK-MEL-28 15.5 µM | SK-MEL-5 10.7 µM | SK-OV-3 10.9 µM | SN12C 8 µM | U-251 11.5 µM | UACC-257 13.2 µM | UO-31 10.2 µM

O=S(=O)(c1ccccc1)C1CN2OC1(S(=O)(=O)c1ccccc1)CC21CCCCC1 (configuration not stated)
inactive: A549 > 100 µM | HCC 2998 > 100 µM | HL-60 44.9 µM | K562 85.9 µM | KM12 > 100 µM | NCI-H226 > 100 µM | NCI-H522 51.5 µM | OVCAR-3 > 100 µM | OVCAR-8 > 100 µM | RXF 393 77.1 µM | SK-MEL-28 > 100 µM | SK-OV-3 > 100 µM | SN12C > 100 µM | U-251 > 100 µM | UACC-257 > 100 µM | UO-31 42.9 µM

Cn1cnnc1Sc1c([N+](=O)[O-])ncn1C
inactive: A498 > 100 µM | A549 > 100 µM | HCC 2998 > 100 µM | K562 29.2 µM | KM12 > 100 µM | NCI-H226 > 100 µM | NCI-H522 12.6 µM | OVCAR-3 > 100 µM | OVCAR-8 > 100 µM | SK-MEL-28 36.9 µM | SK-MEL-5 > 100 µM | SK-OV-3 > 100 µM | SN12C > 100 µM | U-251 > 100 µM | UACC-257 > 100 µM | UO-31 > 100 µM

COc1ccc2c(c1)CCC(OS(=O)(=O)CC13CCC(CC1=O)C3(C)C)C2=O (configuration not stated)
inactive: A498 14.8 µM | A549 26.4 µM | HCC 2998 23 µM | HL-60 18.5 µM | K562 24.3 µM | KM12 19.5 µM | NCI-H226 29 µM | NCI-H522 25.2 µM | OVCAR-3 25.7 µM | OVCAR-8 18.7 µM | SK-MEL-28 36.3 µM | SK-MEL-5 17.5 µM | SN12C 19 µM | U-251 21.9 µM | UACC-257 37.8 µM | UO-31 35.6 µM

N#CC(C(=O)/C(=N/NC(=O)c1ccccc1O)C(C#N)c1ccc(Cl)cc1)c1ccc(Cl)cc1 (configuration not stated)
inactive: A498 11.9 µM | A549 24.6 µM | HL-60 15.5 µM | K562 19.2 µM | KM12 15.8 µM | NCI-H226 16.9 µM | NCI-H522 > 10 µM | OVCAR-3 20 µM | OVCAR-8 13.4 µM | RXF 393 4.05 µM | SK-MEL-28 14.4 µM | SK-OV-3 30.8 µM | SN12C 13.2 µM | U-251 10.6 µM | UACC-257 14.6 µM | UO-31 17.1 µM

c1ccc(CN(Cn2cccn2)Cn2cccn2)nc1
inactive: A498 > 100 µM | A549 > 100 µM | HL-60 47.8 µM | K562 > 100 µM | KM12 > 100 µM | NCI-H522 > 100 µM | OVCAR-3 > 100 µM | OVCAR-8 > 100 µM | RXF 393 > 100 µM | SK-MEL-28 > 100 µM | SK-MEL-5 > 100 µM | SK-OV-3 > 100 µM | SN12C > 100 µM | U-251 > 100 µM | UACC-257 > 100 µM | UO-31 > 100 µM

NC(=O)c1cccc([N+](=O)[O-])c1
inactive: A498 > 100 µM | A549 > 100 µM | HCC 2998 > 100 µM | HL-60 > 100 µM | K562 > 100 µM | KM12 > 100 µM | NCI-H226 > 100 µM | NCI-H522 > 100 µM | OVCAR-3 > 100 µM | OVCAR-8 > 100 µM | SK-MEL-28 > 100 µM | SK-MEL-5 > 100 µM | SK-OV-3 > 100 µM | SN12C > 100 µM | U-251 > 100 µM | UACC-257 > 100 µM | UO-31 > 100 µM

COP(=O)(Cc1ccc(/C=C/C#N)o1)OC
inactive: A498 > 100 µM | A549 > 100 µM | HL-60 > 100 µM | K562 > 100 µM | KM12 > 100 µM | NCI-H226 > 100 µM | NCI-H522 > 100 µM | OVCAR-3 > 100 µM | OVCAR-8 > 100 µM | RXF 393 > 100 µM | SK-MEL-28 > 100 µM | SK-OV-3 > 100 µM | U-251 > 100 µM

COc1cc(/C=C(\C#N)C(=O)c2ccccc2)ccc1O
inactive: A498 > 100 µM | A549 > 100 µM | HCC 2998 > 100 µM | HL-60 46.6 µM | K562 > 100 µM | KM12 > 100 µM | NCI-H226 > 100 µM | NCI-H522 > 100 µM | OVCAR-3 34.4 µM | OVCAR-8 > 100 µM | SK-MEL-28 > 100 µM | SK-MEL-5 > 100 µM | SK-OV-3 > 100 µM | SN12C > 100 µM | U-251 > 100 µM | UACC-257 > 100 µM | UO-31 > 100 µM

COC(=O)C1CC/C(=N/C2c3ccccc3-c3ccccc32)N1 (configuration not stated)
inactive: A498 > 100 µM | A549 > 100 µM | HCC 2998 57.9 µM | HL-60 > 100 µM | K562 > 100 µM | KM12 > 100 µM | NCI-H226 > 100 µM | NCI-H522 19.6 µM | OVCAR-3 74.8 µM | OVCAR-8 > 100 µM | SK-MEL-28 > 100 µM | SK-OV-3 > 100 µM | SN12C > 100 µM | U-251 > 100 µM | UACC-257 > 100 µM | UO-31 > 100 µM

O=C1OC(c2ccc(Cl)c3ccccc23)c2ccccc21 (configuration not stated)
inactive: A498 > 100 µM | A549 76.7 µM | HCC 2998 91.2 µM | HL-60 > 100 µM | K562 55.7 µM | KM12 > 100 µM | NCI-H522 > 100 µM | OVCAR-8 > 100 µM | RXF 393 26.1 µM | SK-MEL-28 > 100 µM | SK-MEL-5 > 100 µM | SK-OV-3 > 100 µM | SN12C > 100 µM | U-251 > 100 µM | UACC-257 > 100 µM | UO-31 > 100 µM
